Measurements published in patent US12599609B2, “Methods of treating fuchs endothelial corneal dystrophy after descemetorhexis” (KOWA COMPANY, LTD., priority 2021, dated 2026).
Where a name gives a salt, the structure may show the parent alone.

System: patients with FECD after descemetorhexis
Assay: Phase 2 study of ripasudil eye drops after descemetorhexis in patients with Fuchs endothelial corneal dystrophy
Type: in vivo, human
Settings: BID and QID dosing of a 0.4% formulation, topical to the eye
Source text: As a condition of participating in the clinical study described in Example 3, each patient will undergo descemetorhexis of a study eye selected by the investigator for surgery. A digital photo of the study eye is taken immediately before and immediately after the descemetorhexis. The investigator will perform descemetorhexis to remove central confluent guttae, removing an area of Descemet membrane with a diameter of 4.5 to 5.5 mm. The longest diameter and the shortest diameter must be recorded. Detailed procedures for performing descemetorhexis are described in several literature references, including, for example, Macsai M S, Shiloach M. Cornea. 2019; 38:529-534, and Moloney G, Congote D G, Hirnschall N, et al. Cornea. 2020 Jul. 31. doi: 10.1097/ICO.0000000000002437. Online ahead of print.
Recommended post-descemetorhexis concomitant therapy consists of broad spectrum antibiotic (0.5% moxifloxacin hydrochloride) instilled at least once daily for 1 week and glucocorticoid (1% prednisolone acetate) instilled 3 times daily for the first 7 days, followed by once daily for the next 7 days, and terminated thereafter. The investigator may add antibiotic and glucocorticoid dosing after this 14 days as rescue therapy if the investigator judges it necessary. When more than 1 different eye drop is administered (including study drug), the study drug must be administered first, followed by any non-study eye drop (after at least 5 minutes have passed).
In this U.S. FDA approved study, the primary objective is to investigate the effect of K-321 dosed for 12 weeks on central ECD in patients with FECD after descemetorhexis. […]

C[C@H]1CNCCCN1S(=O)(=O)c1cccc2cncc(F)c12 [ripasudil hydrochloride, Ripasudil]
demonstrated particular benefit: improving best corrected visual acuity (BCVA) | improving central corneal endothelial corneal density (ECD) | reduction of corneal edema
